In US10023555B2, “NSAIDs derivatives and uses thereof” (Research Foundation of The City University of New York, priority 2013, dated 2018):
Like-named read-outs stand apart in the source and are kept apart here.

Key:
Assay type in all cases: cell-based
[1] = test system: HT-29 human colon adenocarcinoma cells; test: MTT cell growth inhibition, HT-29; conditions: for IC50: Homo sapiens, read-out: IC50 for cell growth inhibition; for Enhanced Potency: ratio of IC50 NSAID/POSH-NSAID, fold-enhancement over parent, HT-29
[2] = test system: HCT-15 human colon adenocarcinoma cells; test: MTT cell growth inhibition, HCT 15; conditions: for IC50: Homo sapiens, read-out: IC50 for cell growth inhibition; for Enhanced Potency: ratio of IC50 NSAID/POSH-NSAID, fold-enhancement over parent, HCT 15
[3] = test system: SW-480 human colon adenocarcinoma cells; test: MTT cell growth inhibition, SW480; conditions: for IC50: Homo sapiens, read-out: IC50 for cell growth inhibition; for Enhanced Potency: ratio of IC50 NSAID/POSH-NSAID, fold-enhancement over parent, SW480
[4] = test system: MIA PaCa-2 human pancreatic cancer cells; test: MTT cell growth inhibition, MIAPaCa2; conditions: for IC50: Homo sapiens, read-out: IC50 for cell growth inhibition; for Enhanced Potency: ratio of IC50 NSAID/POSH-NSAID, fold-enhancement over parent, MIAPaCa2
[5] = test system: BxPC-3 human pancreatic cancer cells; test: MTT cell growth inhibition, BxPC3; conditions: for IC50: Homo sapiens, read-out: IC50 for cell growth inhibition; for Enhanced Potency: ratio of IC50 NSAID/POSH-NSAID, fold-enhancement over parent, BxPC3
[6] = test system: A549 human lung cancer cells; test: MTT cell growth inhibition, A549; conditions: for IC50: Homo sapiens, read-out: IC50 for cell growth inhibition; for Enhanced Potency: ratio of IC50 NSAID/POSH-NSAID, fold-enhancement over parent, A549
[7] = test system: LNCAP human prostate cancer cells; test: MTT cell growth inhibition, LNCAP; conditions: 24 h; for IC50: Homo sapiens, read-out: IC50 for cell growth inhibition; for Enhanced Potency: ratio of IC50 NSAID/POSH-NSAID, fold-enhancement over parent, LNCAP
[8] = test system: Jurkats human leukemia cells; test: MTT cell growth inhibition, Jurkat; conditions: 24 h; for IC50: Homo sapiens, read-out: IC50 for cell growth inhibition; for Enhanced Potency: ratio of IC50 NSAID/POSH-NSAID, fold-enhancement over parent
[9] = MIA PaCa-2, 24 h, Pancreas MIAPaCa2, mean ± SEM of three determinations
[10] = BXPC-3, 24 h, Pancreas BxPC3, mean ± SEM of three determinations
[11] = 24 h, Lung A549, mean ± SEM of three determinations
[12] = Prostate LNCAP, mean ± SEM of three determinations
[13] = Leukemia Jurkat, mean ± SEM of three determinations

SMILES	IC50 [4, 9]	IC50 [5, 10]	IC50 [6, 11]	IC50 [7, 12]	IC50 [8, 13]	IC50 ([1]; HT-29, 24 h)	Enhanced Potency ([1]; 24 h)	IC50 ([2]; HCT-15, 24 h)	Enhanced Potency ([2]; 24 h)	IC50 ([3]; SW480, 24 h)	Enhanced Potency ([3]; 24 h)	IC50 ([4]; MIA PaCa-2, 24 h)	Enhanced Potency ([4]; 24 h)	IC50 ([5]; BXPC-3, 24 h)	Enhanced Potency ([5]; 24 h)	IC50 ([6]; A549, 24 h)	Enhanced Potency ([6]; 24 h)	IC50 ([7]; LNCaP)	Enhanced Potency [7]	IC50 ([8]; Jurkat)	other results
CC(=O)Oc1ccccc1C(=O)O [ASA, aspirin, reference compound]	> 5000 µM	> 5000 µM	> 5000 µM	> 5000 µM	> 5000 µM	–	–	–	–	–	–	–	–	–	–	–	–	–	–	–	IC50 ([1]; 24 h, Colon HT-29, mean ± SEM of three determinations): > 5000 µM; IC50 ([2]; 24 h, Colon HCT 15, mean ± SEM of three determinations): > 5000 µM; IC50 ([3]; 24 h, Colon SW480, mean ± SEM of three determinations): > 5000 µM
CCOP(=O)(OCC)OCCSSCCOC(=O)C(C)c1ccc2cc(OC)ccc2c1 (stereo not drawn) [POSH-NAP]	–	–	–	–	–	0.15 µM	~18,000	0.12 µM	~24,000	0.18 µM	~17,000	0.088 µM	~36,000	0.1 µM	~26,000	0.16 µM	~16,000	0.13 µM	~25,000	0.17 µM	Enhanced Potency ([8]; Jurkat): ~14,000
COc1ccc2cc([C@H](C)C(=O)O)ccc2c1 [NAP, naproxen, reference compound]	3200 µM	2600 µM	2650 µM	2990 µM	2380 µM	–	–	–	–	–	–	–	–	–	–	–	–	–	–	–	–
CCOP(=O)(OCC)OCCSSCCOC(=O)c1ccccc1OC(C)=O [POSH-ASA]	–	–	–	–	–	0.082 µM	>60,000	0.075 µM	>65,000	0.092 µM	>50,000	0.082 µM	>60,000	0.075 µM	>65,000	0.083 µM	>60,000	0.075 µM	>65,000	0.22 µM	Enhanced Potency ([8]; Jurkat): >20,000
